The test system of this assay is T lymphocyte migration into the right ear. Description: Inhibition of in vivo migration of T lymphocytes into extra lymphatic tissues (picryl chloride treated ear). More on the design: species or system Balb/C mice. As to conditions: 5 mg per mouse, IV, 9 to 10 hours after cell transfer. From the text: T lymphocytes are known to migrate from the blood stream into tissues, including tissues that contain an antigen to which they can respond. An in vivo example of T lymphocyte migration involves the intravenous injection of radioisotopically- or fluorescently-labelled antigen-specific T cells into a mammal that has the antigen present in one or more of its tissues. An assessment of the degree to which the injected T cells have accumulated in the antigen-containing tissue can be made either by measuring the amount of radioactivity present in the tissue or analysing the tissue histologically to determine the number of infiltrated fluorescently labelled cells. […] For example, in the case of a CNS antigen the cells will localise in the brain and spinal cord and the number of labelled cells that have accumulated there can then be determined. […] Within a short time of cell transfer sensitised T cells begin to accumulate in the haptenised tissue and eight to twenty-four hours later the tissue can be removed and the cell accumulation assessed. In the case of fluorescently-labelled cells their accumulation is assessed histologically and in the case of the radio-labelled cells accumulation is assessed by counting radio active decay in a suitable device. […]

The values below come from patent US6878690B2, “Compounds and methods” (PharmAxis Pty Ltd., priority 2000, dated 2005).

As for “Phenylethyl (3,4,5-trihydroxy-6-phosphonooxymethyl-tetrahydro-pyran-2-yl)-acetic acid ester”, the “Percent inhibition of T cell migration” value is 26.1%.
